Laboratory results published in patent publication US10398706B2, “Heteroaryldiazepine derivatives as RSV inhibitors” (Enanta Pharmaceuticals, Inc., priority 2017, dated 2019).
Like-named read-outs stand apart in the source and are kept apart here.

Test system: Human RSV-A (“Long” strain)
Test: RSV-A in vitro cytoprotection assay in HEp-2 cells (ATPlite readout)
Type: cell-based, Human respiratory syncytial virus
Conditions: read-out: Human RSV-A (“Long” strain) EC50
Text: RSV is a single stranded negative sense RNA virus that causes respiratory tract infections which can be dangerous to infants, the elderly, and immunosuppressed individuals. Currently there is no vaccine, and therapeutic options are both costly and of limited effectiveness. These approved treatments are Ribavirin, and Palivizumab/Synagis (a monoclonal antibody). RSV has two genotypes, A and B, which differ primarily in the structure of the virus' surface “G” attachment protein. Our current primary screen focusses on RSV-A and uses an in vitro cytoprotection assay where compounds are added in 2-fold dilutions to cells which are then subjected to fully replicative viral particles. Cell viability is measured several days later along with separate measurements of compound cytotoxicity. This report focuses on the results of our most recent screening of compounds.
HEp-2 cells, (originally derived from tumors grown in irradiated-cortisonised weanling rats that had been injected with epidermoid carcinoma tissue from a person's larynx, but later found to be indistinguishable from HeLa cells by PCR DNA analysis), were used for the culturing of genotype A, “Long” strain RSV. Flasks were inoculated with RSV and viral stocks were collected once cytopathic effect (CPE) was greater than 90%. Viral stocks in 25% sucrose media were snap frozen using liquid nitrogen to increase viral stability. Viral stock titers were quantified by tissue culture infectious dose 50% (TCID50) using 8,000 cells per well and 3-fold viral dilutions across a 96-well plate, cultured for 4 days.
Following extensive parameter testing, the final assay is run as follows: HEp-2 cells are seeded into the inner 60 wells of a 96-well plate at 8,000 cells per well in a volume of 50 μL using Growth Media (DMEM without phenol red, 1% L-Glut, 1% Penn/Strep, 1% nonessential amino acids, 10% FBS). 2-fold serial dilutions of control and test compounds are added to the wells in duplicate in a total volume of 25 μL. Viral stock is then added to the wells in a volume of 25 μL, bringing the total volume of each well to 100 μL. Each 96-well plate has a control column of 6 wells with cells and virus but no compound (negative control, max CPE), a column with cells but no compound or virus (positive control, minimum CPE), and a column with no cells or virus or compound (background plate/reagent control). The control wells with cells but no virus are given an additional 25 uL of growth media containing an equal quantity of sucrose as those wells receiving the viral stock in order to keep consistent in media and volume conditions. The outer wells of the plate are filled with 125 μL of growth media to act as a thermal and evaporative moat around the test wells. Following a 4-day incubation period, the plates are read using ATPlite (50 uL added per well), which quantifies the amount of ATP (a measure of cell health) present in each well. Assay plates are read using the Envision luminometer. […] EC50 ranges are as follows: A<0.4 μM; B 0.4-0.8 μM; C>0.8 μM.

[1] = human respiratory syncytial virus, HEp-2, 96 h
[2] = HEp-2 cells, 4-day incubation, ATPlite cell viability

Row | Compound | EC50 [1] [nM] | EC50 [2] [nM]
1 | O=C1Nc2cccnc2C(c2ccccc2)=NC1Nc1nnc(-c2ccccc2)o1 (stereo not shown) [Example 1] | > 800 | –
2 | O=C1Nc2ncccc2C(c2ccccc2)=NC1Nc1nnc(-c2ccc(F)cc2)o1 (stereo not shown) [Example 2] | > 800 | –
3 | O=C1Nc2cnccc2C(c2ccccc2)=NC1Nc1nnc(-c2ccc(F)cc2)o1 (stereo not shown) [Example 3] | > 800 | –
4 | O=C1Nc2ccsc2C(c2ccccc2)=NC1Nc1nnc(-c2ncc(C(F)(F)F)cc2N2CCOCC2)o1 (stereo not shown) [Example 4] | 400 to 800 | –
5 | O=C1Nc2sccc2C(c2ccccc2)=NC1Nc1nnc(-c2ncc(C(F)(F)F)cc2N2CCOCC2)o1 (stereo not shown) [Example 5] | 400 to 800 | –
6 | Cc1cc2c(s1)NC(=O)[C@@H](Nc1nnc(-c3ncc(C(F)(F)F)cc3N3CCOCC3)o1)N=C2c1ccccc1 [Example 6] | – | < 400
7 | Cc1sc2c(c1C)C(c1ccccc1)=N[C@H](Nc1nnc(-c3ncc(C(F)(F)F)cc3N3CCOCC3)o1)C(=O)N2 [Example 8] | – | 400 to 800
